Measured values reported in patent US20150023989A1, “NEW ANTIBODY DRUG CONJUGATES (ADCS) AND THE USE THEREOF” (SEATTLE GENETICS, INC., priority 2011, published 2015).
Structures can show the parent of a compound that is named as a salt. Where a SMILES comes first, the peptide text is derived from it. [ ]: non-standard residue; d: D form. The star is where a group is joined. X1 = CC(C)[C@@H](C(=O)*)N(C)CCCCCC(=O)NCCCC[C@H](N)C(=O)O; Dolaproine = CO[C@@H]([C@@H]1CCCN1)[C@@H](C)C(=O)O; Dil = CC[C@H](C)[C@H](NC)[C@@H](CC(=O)O)OC; X4 = C[C@@H](N*)[C@@H](O)c1ccccc1; Oxazinan2yl(1,2) = C1CCN(*)OC1; NMeV = CN[C@H](C(=O)O)C(C)C

Assays:
[1] = system: tubulin; assay: Fluorescence-based microtubule polymerisation assay; type: biochemical; details: rate at 1 μM MMAF set at 100%
Procedure: Tubulin polymerization was investigated using the “Fluorescence-based Microtubule Polymerisation Assay Kit” from Cytoskeleton (Denver, Colo., USA; order number: BK011). With this assay, GTP is added to unpolymerized tubulin, allowing polymerization to take place spontaneously. The assay is based on the binding of the fluorophore 4′,6-diamidino-2-phenylindole (DAPI) to tubulin. Free and bound DAPI can be differentiated on the basis of different emission spectra.
In addition to the buffer control, paclitaxel, with a polymerization-increasing effect, and vinblastin, with a polymerization inhibiting effect, were run additionally as assay controls. Measurement was carried out using 96-well plates with a half base area. The kinetics of the tubulin polymerization were monitored in a Fluorimeter at 37° C. for 1 hour. The excitation wavelength was 355 nm, and emission was monitored at 460 nm. For the region of linear increase within the first 10 minutes, a calculation was made of the change in fluorescence per minute (ΔF/min), which represents the polymerization rate of the microtubuli. The potency of the test substances was quantified on the basis of their respective reduction of the polymerization rate. Table 6 below gives data for the influence of representative working examples on tubulin polymerization.

[2] = Flux assay using Caco-2 cells (cell permeability); type: in vitro ADME; details: human, 2 hours incubation
Procedure: (§1) The cell permeability of a substance can be investigated by means of in vitro testing in a flux assay using Caco-2 cells [M. D. Troutman and D. R. Thakker, Pharm. Res. 20 (8), 1210-1224 (2003)]. For this purpose, the cells were cultured for 15-16 days on 24-well filter plates. For the determination of permeation, the respective working example was applied in a HEPES buffer to the cells either apically (A) or basally (B) and incubated for 2 hours. After 0 hours and after 2 hours, samples were taken from the cis and trans compartments. The samples were separated by HPLC (Agilent 1200, Böblingen, Germany) using reverse phase columns. The HPLC system was coupled via a Turbo Ion Spray Interface to a Triple Quadropol mass spectrometer API 4000 (Applied Biosystems Applera, Darmstadt, Germany). The permeability was evaluated on the basis of a Papp value, which was calculated using the formula published by Schwab et al. [D. Schwab et al., J. Med. Chem. 46, 1716-1725 (2003)].

[3] = biological target: T1, P-glycoprotein (P-gp) (Homo sapiens, UniProt P08183); assay: Flux assay for P-gp substrate properties in L-MDR1 cells; type: in vitro ADME; details: L-MDR1 cells (P-gp overexpressing LLC-PK1), 2 hours incubation
T1 construct: expressed in transfected cells; host or cells: LLC-PK1 (pig kidney) cells transfected with human MDR1 (L-MDR1)
T1 sequence (P08183 whole entry): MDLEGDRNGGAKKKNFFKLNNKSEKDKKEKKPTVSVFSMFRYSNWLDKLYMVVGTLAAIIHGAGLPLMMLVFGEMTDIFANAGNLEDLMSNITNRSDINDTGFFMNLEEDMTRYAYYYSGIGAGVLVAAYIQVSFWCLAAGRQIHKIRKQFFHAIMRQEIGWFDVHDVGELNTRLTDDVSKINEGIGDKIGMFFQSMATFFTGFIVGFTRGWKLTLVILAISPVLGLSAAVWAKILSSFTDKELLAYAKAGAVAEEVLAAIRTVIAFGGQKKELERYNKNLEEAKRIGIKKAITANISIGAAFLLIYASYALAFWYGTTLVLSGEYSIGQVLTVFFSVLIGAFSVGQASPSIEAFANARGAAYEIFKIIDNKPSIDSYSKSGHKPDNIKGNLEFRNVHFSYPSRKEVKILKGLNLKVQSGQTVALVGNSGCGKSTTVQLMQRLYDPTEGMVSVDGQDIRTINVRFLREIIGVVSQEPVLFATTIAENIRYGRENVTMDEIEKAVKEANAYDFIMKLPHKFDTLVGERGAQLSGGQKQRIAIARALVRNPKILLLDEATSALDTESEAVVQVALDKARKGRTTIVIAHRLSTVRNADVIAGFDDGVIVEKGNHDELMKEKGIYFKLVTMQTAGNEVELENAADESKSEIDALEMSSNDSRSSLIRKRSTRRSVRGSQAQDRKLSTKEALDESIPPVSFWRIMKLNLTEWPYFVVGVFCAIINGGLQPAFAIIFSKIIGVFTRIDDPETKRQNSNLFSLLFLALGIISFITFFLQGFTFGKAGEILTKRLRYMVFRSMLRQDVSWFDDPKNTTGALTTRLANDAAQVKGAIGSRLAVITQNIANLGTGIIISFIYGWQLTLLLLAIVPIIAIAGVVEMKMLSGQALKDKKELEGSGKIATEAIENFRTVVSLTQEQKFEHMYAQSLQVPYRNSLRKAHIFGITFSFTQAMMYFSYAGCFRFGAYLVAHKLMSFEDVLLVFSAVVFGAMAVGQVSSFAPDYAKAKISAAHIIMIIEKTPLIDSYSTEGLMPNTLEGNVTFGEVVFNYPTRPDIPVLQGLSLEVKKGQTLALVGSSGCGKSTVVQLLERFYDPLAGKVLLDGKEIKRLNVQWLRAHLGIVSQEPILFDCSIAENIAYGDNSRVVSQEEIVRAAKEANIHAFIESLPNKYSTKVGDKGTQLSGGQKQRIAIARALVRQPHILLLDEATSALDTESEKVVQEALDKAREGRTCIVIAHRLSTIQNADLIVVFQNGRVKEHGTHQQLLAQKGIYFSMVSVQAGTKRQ
Procedure: The substrate properties of a substance for P-gp (ABCB1) were determined by means of a flux assay using LLC-PK1 cells which overexpress P-gp (L-MDR1 cells) [A. H. Schinkel et al., J. Clin. Invest. 96, 1698-1705 (1995)]. For this purpose, the LLC-PK1 cells or L-MDR1 cells were cultured on 96-well filter plates for 3-4 days. For determination of the permeation, the respective test substance, alone or in the presence of an inhibitor (such as Ivermectin or Verapamil, for example), was applied in a HEPES buffer to the cells either apically (A) or basally (B) and incubated for 2 hours. After 0 hours and after 2 hours, samples were taken from the cis and trans compartments. The samples were separated by HPLC using reverse phase columns. The HPLC system was coupled via a Turbo Ion Spray Interface to a Triple Quadropole mass spectrometer API 3000 (Applied Biosystems Applera, Darmstadt, Germany). The permeability was evaluated on the basis of a Papp value which was calculated using the formula published by Schwab et al. [D. Schwab et al., J. Med. Chem. 46, 1716-1725 (2003)].
Table 8 below lists permeability data for representative working examples from this assay, which was carried out in L-MDR1 cells: […]

[4] = system: Caco-2 cells; assay: Flux assay using Caco-2 cells (cell permeability); type: in vitro ADME; details: 2 hours incubation
Procedure: as §1

Compound	Tubulin polymerization in the presence of toxophore ([1]; toxophore 1 μM) [%]	Tubulin polymerization in the presence of toxophore ([1]; toxophore 10 μM) [%]	Papp B→A at 2 h [2] [×10⁻⁶ cm/s]	Papp (B-A) [3] [×10⁻⁶ cm/s]	Papp (B-A) [4] [×10⁻⁶ cm/s]
CC[C@H](C)[C@@H]([C@@H](CC(=O)N1CCC[C@H]1[C@H](OC)[C@@H](C)C(=O)N[C@@H](Cc1c[nH]c2ccccc12)C(=O)N1CCCCO1)OC)N(C)C(=O)[C@@H](NC(=O)[C@H](C(C)C)N(C)CCCCCC(=O)NCCCC[C@H](N)C(=O)O)C(C)C [Example 18, N-(6-{[(5S)-5-Amino-5-carboxypentyl]amino}-6-oxohexyl)-N-methyl-L-valyl-N-[(3R,4S,5S)-1-{(2S)-2-[(1R,2R)-3-{[(2S)-3-(1H-indol-3-yl)-1-(1,2-oxazinan-2-yl)-1-oxopropan-2-yl]amino}-1-methoxy-2-methyl-3-oxopropyl]pyrrolidin-1-yl}-3-methoxy-5-methyl-1-oxoheptan-4-yl]-N-methyl-L-valinamide trifluoroacetate] (X1-V[Dil][Dolaproine]W-{Oxazinan2yl(1,2)})	45	1	0.2	–	–
CC[C@H](C)[C@@H]([C@@H](CC(=O)N1CCC[C@H]1[C@H](OC)[C@@H](C)C(=O)N[C@@H](Cc1c[nH]c2ccccc12)C(=O)O)OC)N(C)C(=O)[C@@H](NC(=O)[C@H](C(C)C)N(C)CCCCCC(=O)NCCCC[C@H](N)C(=O)O)C(C)C [Example 19, N-(6-{[(5S)-5-Amino-5-carboxypentyl]amino}-6-oxohexyl)-N-methyl-L-valyl-N-[(3R,4S,5S)-1-{(2S)-2-[(1R,2R)-3-{[(1S)-1-carboxy-2-(1H-indol-3-yl)ethyl]amino}-1-methoxy-2-methyl-3-oxopropyl]pyrrolidin-1-yl}-3-methoxy-5-methyl-1-oxoheptan-4-yl]-N-methyl-L-valinamide] (X1-V[Dil][Dolaproine]W-OH)	80	14	0.1	–	–
CC[C@H](C)[C@@H]([C@@H](CC(=O)N1CCC[C@H]1[C@H](OC)[C@@H](C)C(=O)N[C@@H](Cc1c[nH]c2ccccc12)C(N)=O)OC)N(C)C(=O)[C@@H](NC(=O)[C@H](C(C)C)N(C)CCCC(=O)NNC(=O)CCCCCN1C(=O)CC(SC[C@H](N)C(=O)O)C1=O)C(C)C (stereo partly drawn) [Example 21, N-(4-{2-[6-(3-{[(2R)-2-Amino-2-carboxyethyl]sulphanyl}-2,5-dioxopyrrolidin-1-yl)hexanoyl]hydrazino}-4-oxobutyl)-N-methyl-L-valyl-N-[(3R,4S,5S)-1-{(2S)-2-[(1R,2R)-3-{[(2S)-1-amino-3-(1H-indol-3-yl)-1-oxopropan-2-yl]amino}-1-methoxy-2-methyl-3-oxopropyl]pyrrolidin-1-yl}-3-methoxy-5-methyl-1-oxoheptan-4-yl]-N-methyl-L-valinamide]	88	25	0.2	–	–
CC[C@H](C)[C@@H]([C@@H](CC(=O)N1CCC[C@H]1[C@H](OC)[C@@H](C)C(=O)N[C@@H](Cc1c[nH]c2ccccc12)C(=O)O)OC)N(C)C(=O)[C@@H](NC(=O)[C@H](C(C)C)N(C)CCCC(=O)NNC(=O)CCCCCN1C(=O)CC(SC[C@H](N)C(=O)O)C1=O)C(C)C (stereo partly drawn) [Example 22, N-(4-{2-[6-(3-{[(2R)-2-Amino-2-carboxyethyl]sulphanyl}-2,5-dioxopyrrolidin-1-yl)hexanoyl]hydrazino}-4-oxobutyl)-N-methyl-L-valyl-N-[(3R,4S,5S)-1-{(2S)-2-[(1R,2R)-3-{[(1S)-1-carboxy-2-(1H-indol-3-yl)ethyl]amino}-1-methoxy-2-methyl-3-oxopropyl]pyrrolidin-1-yl}-3-methoxy-5-methyl-1-oxoheptan-4-yl]-N-methyl-L-valinamide]	109	27	0.2	0.4	–
CC[C@H](C)[C@@H]([C@@H](CC(=O)N1CCC[C@H]1[C@H](OC)[C@@H](C)C(=O)N[C@@H](Cc1ccc(O)cc1)C(=O)O)OC)N(C)C(=O)[C@@H](NC(=O)[C@H](C(C)C)N(C)CCCCCC(=O)NCCCC[C@H](N)C(=O)O)C(C)C [Example 37, N-(6-{[(5S)-5-Amino-5-carboxypentyl]amino}-6-oxohexyl)-N-methyl-L-valyl-N-[(3R,4S,5S)-1-{(2S)-2-[(1R,2R)-3-{[(1S)-1-carboxy-2-(4-hydroxyphenyl)ethyl]amino}-1-methoxy-2-methyl-3-oxopropyl]pyrrolidin-1-yl}-3-methoxy-5-methyl-1-oxoheptan-4-yl]-N-methyl-L-valinamide trifluoroacetate] (X1-V[Dil][Dolaproine]Y-OH)	–	–	0.09	–	–
CC[C@H](C)[C@@H]([C@@H](CC(=O)N1CCC[C@H]1[C@H](OC)[C@@H](C)C(=O)N[C@H](C)[C@@H](O)c1ccccc1)OC)N(C)C(=O)[C@@H](NC(=O)[C@@H](NC)C(C)C)C(C)C [monomethylauristatin E (MMAE), monomethylauristatin E, reference compound] (H-[NMeV]V[Dil][Dolaproine]-X4)	–	–	–	–	7.3
CC[C@H](C)[C@@H]([C@@H](CC(=O)N1CCC[C@H]1[C@H](OC)[C@@H](C)C(=O)N[C@@H](Cc1ccccc1)C(=O)O)OC)N(C)C(=O)[C@@H](NC(=O)[C@@H](NC)C(C)C)C(C)C [monomethylauristatin F (MMAF), monomethylauristatin F, reference compound] (H-[NMeV]V[Dil][Dolaproine]F-OH)	100	34	–	–	7.3
